This is an account of results in patent publication US6410568B1, “Porphyrins and their use as photosensitizer” (Astrid Schastak, priority 1998, dated 2002).

What all share (assay): Photodynamic effect in vitro, MTT test after irradiation
For orientation: Tetrazolium dyes change colour on reduction, which living cells bring about.

For test [1], the system named is highly-differentiated gallbladder carcinoma cell line (Wittier). Format: cell-based, human. The note with it: THPTPS 0.2, 0.4, 0.8 mg/ml for 12 hours, Ti:Sa laser 771 nm, 15 J/cm^2. The procedure: (§1) To examine the photodynamic effect in vitro, the above-mentioned cell lines were cultivated in a cell count of 2×10^5 C/ml in DMEM+10% FKS and incubated with the photosensitizer THPTPS in a concentration of 0.2, 0.4, 0.8 mg/ml (Wittier) or 0.4, 0.8, 1.6 mg/ml for 12 hours. Subsequently, they were irradiated with the light of a Ti:Sa leaser with a wavelength of 771 nm and a dose of 15 J/cm^2. […] Approximately 88% of the choroid melanoma cells were able to be killed by the irradiation.

For test [2], the system named is bile duct adenocarcinoma cell line (Charies), undifferentiated to a high degree. Format: cell-based. The note with it: THPTPS 0.4, 0.8, 1.6 mg/ml for 12 hours, Ti:Sa laser 771 nm, 15 J/cm^2. The procedure:
as §1

The next test has as its system choroid melanoma cells. Format: cell-based. To be noted: THPTPS 0.4, 0.8, 1.6 mg/ml for 12 hours, Ti:Sa laser 771 nm, 15 J/cm^2. The procedure: as §1

In the case of “5,10,15,20-tetrakis-(1-alkyl-pyridyl)-21H, 23H-7,8,17,18-tetrahydroporphyrin-tetra-p-toluene sulphonate [THPTPS]”, the “cells dead (MTT test)” value in test [1] is recorded as “approx. 88%”; in test [2] it was “approx. 84%”. Besides, the “cells killed by the irradiation (MTT test)” value in the test with choroid melanoma cells is given as “approx. 88%”.
